The values below are quoted from earlier work in US11998562B2 (priority 2021, dated 2024).

One data set relates to SARS-CoV. The following applies: HAE cells; read-out: IC50, inhibition of SARS-CoV replication.
The conditions of data set [1]: oral delivery.

“Also recorded” adds a separate entry of the source.

In general, IC50 refers to the midpoint of a concentration-inhibition curve. Take `CCC(CC)COC(=O)[C@H](C)N[P@](=O)(OC[C@H]1O[C@@](C#N)(c2ccc3c(N)ncnn23)[C@H](O)[C@@H]1O)Oc1ccccc1` [Remdesivir, 2-Ethylbutyl (2S)-2-{[(S)-{[(2R,3S,4R,5R)-5-(4-aminopyrrolo[2,1-f][1,2,4]triazin-7-yl)-5-cyano-3,4-dihydroxytetrahydrofuran-2-yl]methoxy}(phenoxy)phosphoryl]amino}propanoate]: the solubility in water entry is “practically insoluble; also recorded: poorly water soluble”. Moreover, the IC50 with SARS-CoV is 69 nM. Moreover, the first-pass clearance entry in data set [1] was “complete”.
